Measurements: patent US8569493B2 (Santen Pharmaceutical Co., Ltd., priority 2007, dated 2013)

target: T1, Recombinant human GR (Homo sapiens, UniProt P04150); assay: GR competitor assay by fluorescence polarization (binding activity to glucocorticoid receptor); settings: 20 μM test compound solution, 10 μL per well plus 5 μL 4×GS1 and 5 μL 4×GR; 2 to 4 hours at room temperature; ratio of 100% or more is indicated by 100%
T1 construct: purchased Invitrogen P2816
T1 sequence (P04150 1-777): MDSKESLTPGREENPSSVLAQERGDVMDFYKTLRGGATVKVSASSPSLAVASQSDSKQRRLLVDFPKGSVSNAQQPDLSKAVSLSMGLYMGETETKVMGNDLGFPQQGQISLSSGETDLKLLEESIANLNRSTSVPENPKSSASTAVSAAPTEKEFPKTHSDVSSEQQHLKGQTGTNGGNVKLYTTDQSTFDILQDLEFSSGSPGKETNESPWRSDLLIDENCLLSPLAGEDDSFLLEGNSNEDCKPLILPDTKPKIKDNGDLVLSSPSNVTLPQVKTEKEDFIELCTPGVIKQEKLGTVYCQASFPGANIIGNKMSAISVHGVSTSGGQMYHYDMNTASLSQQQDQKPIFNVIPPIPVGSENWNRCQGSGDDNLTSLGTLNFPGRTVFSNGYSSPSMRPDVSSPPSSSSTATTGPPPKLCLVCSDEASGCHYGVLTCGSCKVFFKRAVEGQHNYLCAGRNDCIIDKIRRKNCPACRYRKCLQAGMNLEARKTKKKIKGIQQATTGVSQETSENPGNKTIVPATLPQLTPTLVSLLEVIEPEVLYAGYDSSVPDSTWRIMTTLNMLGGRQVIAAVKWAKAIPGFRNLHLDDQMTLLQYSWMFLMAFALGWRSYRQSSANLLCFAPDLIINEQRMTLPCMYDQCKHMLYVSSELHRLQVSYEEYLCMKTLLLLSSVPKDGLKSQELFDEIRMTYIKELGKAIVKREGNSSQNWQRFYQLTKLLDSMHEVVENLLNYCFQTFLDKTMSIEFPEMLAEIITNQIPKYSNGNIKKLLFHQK
Method: 1. Evaluation Test for Binding Activity to Glucocorticoid Receptor (hereinafter referred to as “GR”)
In order to evaluate a binding activity to GR, a receptor competitor assay was carried out by a fluorescence polarization method. In the assay, a GR competitor assay kit (manufactured by Invitrogen, cat No. P2816) was used, and a procedure was carried out according to the protocol attached to the kit. Hereinafter, the specific method will be described.
(Preparation of Reagents)
GR screening buffer: A buffer containing 10 mM potassium phosphate (pH 7.4), 20 mM sodium molybdate (Na2MoO4), 0.1 mM ethylene diamine tetraacetic acid (EDTA), 5 mM dithiothreitol (DTT), 0.1 mM stabilizing peptide and 2% dimethylsulfoxide was prepared.
4×GS1 solution: Fluormone™ GS1, which is a fluorescent glucocorticoid ligand, was diluted with GR screening buffer, whereby a 4 nM solution was prepared.
4×GR solution: Recombinant human GR was diluted with GR screening buffer, whereby a 16 nM solution was prepared.
(Preparation of Test Compound Solution)
After a test compound was dissolved in dimethylsulfoxide, it was diluted with GR screening buffer, whereby a 20 μM test compound solution was prepared.
(Test Method and Measurement Method)
1) The test compound solution was added in an amount of 10 μL into each well of a 384-well plate, and then, 4×GS1 solution and 4×GR solution were added in an amount of 5 μL into each well, respectively.
2) The plate was incubated in a dark place at room temperature for 2 to 4 hours.
3) By using a multimode plate reader, Analyst™ HT (manufactured by LJL Biosystems), fluorescence polarization of each well was measured. As the blank, a well containing GR screening buffer in place of the test compound and 4×GS1 solution was used.
4) The same procedure as that in the above 1) to 3) was carried out except that GR screening buffer was used in place of the test compound solution, and the obtained result was taken as the negative control.
5) The same procedure as that in the above 1) to 3) was carried out except that 2 mM dexamethasone was used in place of the test compound solution, and the obtained result was taken as the positive control.
(Calculation Equation of GR Binding Ratio)
A GR binding ratio (%) was calculated from the following equation. GR binding ratio(%)=100×[1−(fluorescence polarization of test compound solution−fluorescence polarization of positive control solution)/(fluorescence polarization of negative control solution−fluorescence polarization of positive control solution)] (Test Results and Discussion)

CCCS(=O)(=O)Oc1ccc(-c2ccc3c(c2COc2cc([N+](=O)[O-])ccc2OC)N(C)C(=O)C(C)(C)N3)c(OC)c1 [Compound 1-44] was tested. Which inhibition at 10 µM did it give?
Its inhibition at 10 µM is 93%.

With COc1cc(OS(=O)(=O)C2CC2)ccc1-c1ccc2c(c1COc1cc([N+](=O)[O-])ccc1C)N(C)C(=O)C(C)(C)N2 [Compound 1-45] as the molecule, how does the inhibition at 10 µM read?
The inhibition at 10 µM was 94%.

Which inhibition at 10 µM does the source give for COc1cc(OS(=O)(=O)CCC(F)(F)F)ccc1-c1ccc2c(c1COc1cc([N+](=O)[O-])ccc1C)N(C)C(=O)C(C)(C)N2 [Compound 1-46] here?
The inhibition at 10 µM was 95%.

Which inhibition at 10 µM does the source give for COc1cc(OS(=O)(=O)C2CCCC2)ccc1-c1ccc2c(c1COc1cc([N+](=O)[O-])ccc1C)N(C)C(=O)C(C)(C)N2 [Compound 1-50] here?
Its inhibition at 10 µM is 98%.

Which inhibition at 10 µM does the source give for COc1cc(OS(=O)(=O)CCCCl)ccc1-c1ccc2c(c1COc1cc(F)ccc1C)N(C)C(=O)C(C)(C)N2 [Compound 1-54, 7-[4-(3-chloropropylsulfonyloxy)-2-methoxyphenyl]-8-(5-fluoro-2-methylphenoxymethyl)-1,3,3-trimethyl-3,4-dihydro-1H-quinoxalin-2-one] here?
The inhibition at 10 µM was 99%.

For COc1cc(OS(=O)(=O)C2CCCC2)ccc1-c1ccc2c(c1CNc1cc(F)ccc1C)N(C)C(=O)C(C)(C)N2 [Compound 1-57], which inhibition at 10 µM is on record?
Its inhibition at 10 µM is 93%.

How did the inhibition at 10 µM turn out when CCCS(=O)(=O)Oc1ccc(-c2ccc3c(c2CNc2cc(F)ccc2C)N(C)C(=O)C(C)(C)N3)c(OC)c1 [Compound 1-58] was run?
The inhibition at 10 µM was 100%.

Which inhibition at 10 µM does the source give for COc1ccccc1NCc1c(-c2ccc(OS(C)(=O)=O)cc2OC)ccc2c1N(C)C(=O)C(C)(C)N2 [Compound 2-1, 7-(2-Methoxy-4-methylsulfonyloxyphenyl)-8-(2-methoxyphenylaminomethyl)-1,3,3-trimethyl-3,4-dihydro-1H-quinoxalin-2-one] here?
Its inhibition at 10 µM is 95%.

With COc1ccccc1NCc1c(-c2ccc(OS(=O)(=O)c3ccccc3)cc2OC)ccc2c1N(C)C(=O)C(C)(C)N2 [Compound 2-2, 8-(2-Methoxyphenylaminomethyl)-7-(2-methoxy-4-phenylsulfonyloxyphenyl)-1,3,3-trimethyl-3,4-dihydro-1H-quinoxalin-2-one] as the molecule, how does the inhibition at 10 µM read?
The inhibition at 10 µM was 89%.

For COc1ccccc1NCc1c(-c2ccc(OS(=O)(=O)C3CC3)cc2OC)ccc2c1N(C)C(=O)C(C)(C)N2 [Compound 2-3], which inhibition at 10 µM is on record?
The inhibition at 10 µM was 93%.

For COc1ccccc1NCc1c(-c2ccc(OS(=O)(=O)CCC(F)(F)F)cc2OC)ccc2c1N(C)C(=O)C(C)(C)N2 [Compound 2-4, 8-(2-Methoxyphenylaminomethyl)-7-[2-methoxy-4-(3,3,3-trifluoropropylsulfonyloxy)phenyl]-1,3,3-trimethyl-3,4-dihydro-1H-quinoxalin-2-one], which inhibition at 10 µM is on record?
Its inhibition at 10 µM is 91%.

For COc1ccccc1NCc1c(-c2ccc(OS(=O)(=O)CC(C)C)cc2OC)ccc2c1N(C)C(=O)C(C)(C)N2 [Compound 2-5, 7-(4-Isobutylsulfonyloxy-2-methoxyphenyl)-8-(2-methoxyphenylaminomethyl)-1,3,3-trimethyl-3,4-dihydro-1H-quinoxalin-2-one], which inhibition at 10 µM is on record?
The inhibition at 10 µM was 97%.

COc1ccccc1NCc1c(-c2ccc(OS(=O)(=O)C(C)C)cc2OC)ccc2c1N(C)C(=O)C(C)(C)N2 [Compound 2-6, 7-(4-Isopropylsulfonyloxy-2-methoxyphenyl)-8-(2-methoxyphenylaminomethyl)-1,3,3-trimethyl-3,4-dihydro-1H-quinoxalin-2-one] was tested. Which inhibition at 10 µM did it give?
The inhibition at 10 µM was 100%.

How did the inhibition at 10 µM turn out when COc1ccccc1NCc1c(-c2ccc(OS(=O)(=O)C3CCCC3)cc2OC)ccc2c1N(C)C(=O)C(C)(C)N2 [Compound 2-7, 7-(4-Cyclopentylsulfonyloxy-2-methoxyphenyl)-8-(2-methoxyphenylaminomethyl)-1,3,3-trimethyl-3,4-dihydro-1H-quinoxalin-2-one] was run?
Its inhibition at 10 µM is 99%.

CCCS(=O)(=O)Oc1ccc(-c2ccc3c(c2CNc2ccccc2OC)N(C)C(=O)C(C)(C)N3)c(OC)c1 [Compound 2-8, 8-(2-Methoxyphenylaminomethyl)-7-(2-methoxy-4-propylsulfonyloxyphenyl)-1,3,3-trimethyl-3,4-dihydro-1H-quinoxalin-2-one] was tested. Which inhibition at 10 µM did it give?
Its inhibition at 10 µM is 98%.

COc1cc(OS(=O)(=O)CCCNCc2ccccc2)ccc1-c1ccc2c(c1COc1cc(F)ccc1C)N(C)C(=O)C(C)(C)N2 [Compound 3-1, 7-[4-(3-Benzylaminopropylsulfonyloxy)-2-methoxyphenyl]-8-(5-fluoro-2-methylphenoxymethyl)-1,3,3-trimethyl-3,4-dihydro-1H-quinoxalin-2-one] was tested. Which inhibition at 10 µM did it give?
The inhibition at 10 µM was 94%.

For CCCNCCCS(=O)(=O)Oc1ccc(-c2ccc3c(c2COc2cc(F)ccc2C)N(C)C(=O)C(C)(C)N3)c(OC)c1 [Compound 3-2, 8-(5-Fluoro-2-methylphenoxymethyl)-7-[2-methoxy-4-(3-propylaminopropylsulfonyloxy)phenyl]-1,3,3-trimethyl-3,4-dihydro-1H-quinoxalin-2-one], which inhibition at 10 µM is on record?
Its inhibition at 10 µM is 100%.

How did the inhibition at 10 µM turn out when COc1cc(OS(=O)(=O)CCCN2CCOCC2)ccc1-c1ccc2c(c1COc1cc(F)ccc1C)N(C)C(=O)C(C)(C)N2 [Compound 3-3, 8-(5-Fluoro-2-methylphenoxymethyl)-7-[2-methoxy-4-[3-(morpholin-4-yl)propylsulfonyloxy]phenyl]-1,3,3-trimethyl-3,4-dihydro-1H-quinoxalin-2-one] was run?
The inhibition at 10 µM was 100%.

How did the inhibition at 10 µM turn out when COc1cc(OS(=O)(=O)CCCN2CCCCC2)ccc1-c1ccc2c(c1COc1cc(F)ccc1C)N(C)C(=O)C(C)(C)N2 [Compound 3-4] was run?
The inhibition at 10 µM was 71%.

For COc1cc(OS(=O)(=O)CCCN(C)CCN(C)C)ccc1-c1ccc2c(c1COc1cc(F)ccc1C)N(C)C(=O)C(C)(C)N2 [Compound 3-5, 7-[4-[3-[N-(2-Dimethylaminoethyl)-N-methylamino]propylsulfonyloxy]-2-methoxyphenyl]-8-(5-fluoro-2-methylphenoxymethyl)-1,3,3-trimethyl-3,4-dihydro-1H-quinoxalin-2-one], which inhibition at 10 µM is on record?
The inhibition at 10 µM was 100%.

For CNCCN(C)CCCS(=O)(=O)Oc1ccc(-c2ccc3c(c2COc2cc(F)ccc2C)N(C)C(=O)C(C)(C)N3)c(OC)c1 [Compound 3-6, 8-(5-Fluoro-2-methylphenoxymethyl)-7-[2-methoxy-4-[3-[N-(2-methylaminoethyl)-N-methylamino]propylsulfonyloxy]phenyl]-1,3,3-trimethyl-3,4-dihydro-1H-quinoxalin-2-one], which inhibition at 10 µM is on record?
The inhibition at 10 µM was 99%.
